Legend:
[1] = system: Herpes Simplex Virus Type II Strain 333 (HSV-2 333); test: Anti-HSV-2 activity by CPE method; type: cell-based; settings: HSV-2, Vero, 48 hours
Description: (§1) In this example, the Vero cell line (ATCC CCL81, purchased from ATCC, US) was used as the normal cell. […] The cytopathic effect (CPE) was then observed under an optical microscope.

[2] = system: Herpes Simplex Virus Type II Strain 333 (HSV-2 333); test: Plaque reduction assay (PRA), HSV-2; type: cell-based; settings: for IC50: Human alphaherpesvirus 2, plaque reduction, Vero, n = 3, read-out: Antiviral activity HSV-2 IC50
Procedure: (§2) In this example, the Vero cell line (ATCC CCL81, purchased from ATCC, US) was used as the normal cell.
(§3) The Vero cells were cultured to a monolayer on 24 well plates. […] The virus solutions were suck out and discarded. […] After observing for 72 hours, they were fixed for 30 minutes with 10% formaldehyde, stained for 30 minutes with 1% crystal violet, rinsed with water, and dried. The plaques were counted with reference to Nitta's method, and the plaque inhibition rate was calculated.
(§4) A curve graph was plotted with the logarithmic value of the drug concentration as the horizontal coordinate, and the plaque inhibition rate as the vertical coordinate.

[3] = system: Herpes Simplex Virus Type I Strain F (HSV-1 F); test: Plaque reduction assay (PRA), HSV-1; type: cell-based; settings: for IC50: Human alphaherpesvirus 1, plaque reduction, Vero, n = 3, read-out: Antiviral activity HSV-1 IC50
Procedure: as §2, §3, §4

[4] = system: human chronic myeloid leukemia cells (K562); test: MTT proliferation inhibition, K562
Procedure: (§6) In this example, the positive control was 17-AAG (purchased from Alexis Biochemicals Company, US); and the applied cell lines of K562, Hela, A375, Mcf-7, etc., were all purchased from ATCC, Manassas, Va., USA.
Quadruplicate wells were set for each of the concentrations, and the experimental groups, the solvent control groups, and the blank groups were set for the experiments. The 96 well plates were placed in an incubator at 37° C., 5% CO2, and incubated for 48 hours.
(3) With reference to the MTT method established by Mosmann, 20 μL, MTT solution was added to each of the wells and incubation continued for 4 hours. The solution in each well was sucked out and discarded carefully. Then 100 mL DMSO was added to each of the wells, and the mixture shaken for 15 minutes on a shaker in the dark. The colorimetric measurements were carried out on a microplate reader (with a wavelength of 570 nm, and a reference wavelength of 630 nm), and the absorbances (A value) were determined. The half toxic concentration (IC50) of the drug was calculated.

[5] = system: human breast cancer cells (MCF-7); test: MTT proliferation inhibition, MCF-7
Description: as §6
(§7) (2) Human cervical carcinoma cells (Hela), human malignant melanoma cells (A375), human laryngeal epithelial cancer cells (Hep-2), and human breast cancer cells (MCF-7) in logarithmic growth phase were taken, and regulated into single cell suspensions having a cell concentration of 2×10^5/mL with a DMEM culture medium containing 10% fetal bovine serum (purchased from GIBCO BRL, US). Then the single cell suspensions were seeded into 96 well plates, 100 μL/well. The cells were cultured overnight, making them attach to the wall. […] Quadruplicate wells were set for each of the concentrations, and the experimental groups, the solvent control groups, and the blank groups were set for the experiments. The 96 well plates were placed in an incubator at 37° C., 5% CO2, and incubated for 48 hours.
(§8) (3) With reference to the MTT method established by Mosmann, 20 μL, MTT solution was added to each of the wells and incubation continued for 4 hours. […] The colorimetric measurements were carried out on a microplate reader (with a wavelength of 570 nm, and a reference wavelength of 630 nm), and the absorbances (A value) were determined. The half toxic concentration (IC50) of the drug was calculated.

[6] = system: Vero cells; test: in vitro
Procedure: (§5) The cells were cultured overnight, and the culture solutions were discarded. […] Then the Vero cells were incubated for an additional 48 hours. The ATP levels in the Vero cells and the AK release quantity in the supernatant of the culture solutions were determined using kits from Lonza, US (Vialight HS kit and Toxilight bioassay kit). The maximum non-toxic concentration of the drug on the Vero cells within 48 hours were then assayed. The positive drug 17-AAG was used as control in the experiment (starting from 10 μM, double dilution of 6 concentrations).

[7] = system: human laryngeal epithelial cancer cells (Hep-2); test: MTT proliferation inhibition, Hep-2
Description: as §6, §7, §8

[8] = system: human malignant melanoma cells (A375); test: MTT proliferation inhibition, A375
Description: as §6, §7, §8

[9] = system: human cervical carcinoma cells (Hela); test: MTT proliferation inhibition, Hela
Description: as §6, §7, §8

[10] = system: Hsp90; settings: background statement; cited from earlier work
[11] = system: Herpes Simplex Virus Type 1 Strain F (HSV-1 F); test: Anti-HSV-1 activity by CPE method; type: cell-based; settings: HSV-1, Vero, 48 hours
Description: as §1

[12] = in vitro; settings: African green monkey
Procedure: as §5

Nc1nc2c(ncn2COCCO)c(=O)[nH]1 [ACV, Acyclovir, reference compound]
CPE ([1]; 0.16 μM): ++ (26%-50% ++)
CPE ([1]; 0.31 μM): ++ (26%-50% ++)
IC50 [2]: 3.32 ± 0.44 µM
IC50 [3]: 4.16 ± 1.02 µM

C=CCNC1=C2C[C@@H](C)C[C@H](OC)[C@H](O)[C@@H](C)/C=C(\C)[C@H](OC(N)=O)[C@@H](OC)/C=C\C=C(/C)C(=O)NC(=CC1=O)C2=O [Compound 17-AAG, 17-allylaminogeldanamycin, reference compound]
IC50 ([4]; K562, MTT, 48 hours): 2.43 ± 0.68 µM
IC50 ([5]; MCF-7, MTT, 48 hours): 3.24 ± 0.15 µM
maximum non-toxic concentration ([6]; Vero cells, 48 hours): 0.63 µM
IC50 ([7]; Hep-2, MTT, 48 hours): 2.33 ± 0.3 µM
IC50 ([8]; A375, MTT, 48 hours): 3.13 ± 0.15 µM
IC50 ([9]; Hela, MTT, 48 hours): 5.42 ± 0.18 µM

CO[C@@H]1[C@@H](OC(N)=O)[C@@H](O)[C@H](Oc2ccc3c(O)c(NC(=O)c4ccc(O)c(CC=C(C)C)c4)c(=O)oc3c2C)OC1(C)C [Novobiocin]
concentration used as an inhibitor of Hsp90 [10]: up to 700 μM

CC(=O)OC(CC(=O)OC1CCC(Nc2cc(-n3nc(C)c4c3CC(C)(C)CC4=O)ccc2C(N)=O)CC1)C[N+](C)(C)C.[Cl-] (stereo not shown) [Xbj-B16-1, 2-(4-(3-acetylcarnitineacyloxy)cyclohexylamino)-4-(1-(3,6,6-trimethyl-4-oxy-4,5,6,7-terahydroindazole))benzamide]
CPE ([1]; 0.39 μM): ++++ (76%-100% ++++)
CPE ([1]; 0.78 μM): ++++ (76%-100% ++++)
CPE ([1]; 1.56 μM): ++++ (76%-100% ++++)
CPE ([1]; 3.13 μM): +++ (51%-75% +++)
CPE ([1]; 6.25 μM): +++ (51%-75% +++)
CPE ([1]; 12.5 μM): + (0-25% +)
IC50 ([4]; Homo sapiens, K562, 48 h): 8.31 ± 1.78 µM
IC50 ([5]; Homo sapiens, MCF7, 48 h): 9.53 ± 2.03 µM
CPE ([11]; 0.39 μM): ++++ (76%-100% ++++)
CPE ([11]; 0.78 μM): ++++ (76%-100% ++++)
CPE ([11]; 1.56 μM): ++++ (76%-100% ++++)
CPE ([11]; 3.13 μM): +++ (51%-75% +++)
CPE ([11]; 6.25 μM): ++ (26%-50% ++)
IC50 [2]: 3.2 ± 0.33 µM
HSV-2 TI (therapeutic index, TC50/IC50) ([2]; TC50/IC50): 14.93
Toxity TC0 (the maximum non-toxic concentration) ([6]; African green monkey, 48 h): 12.5 µM
maximum non-toxic concentration ([6]; African green monkey, 48 h): 12.5 µM
CC50 at 48 h [12]: 47.8 ± 3.53 µM
IC50 ([7]; Homo sapiens, HEp-2, 48 h): 6.37 ± 2.13 µM
IC50 ([8]; Homo sapiens, A-375, 48 h): 7.23 ± 1.31 µM
IC50 [3]: 2.96 ± 0.56 µM
HSV-1 TI (therapeutic index, TC50/IC50) ([3]; TC50/IC50): 16.14
IC50 ([9]; Homo sapiens, HeLa, 48 h): 10.3 ± 2.48 µM

Source: patent publication US9630925B2, “HSP90 inhibitor and preparation method and use thereof” (priority 2010, dated 2017)
